In US6344476B1, “Inhibition of p38 kinase activity by aryl ureas” (Bayer Corporation, priority 1997, dated 2002):

| Structure (SMILES) | melting point |
| --- | --- |
| CNC(=O)c1sc(C(C)(C)C)cc1NC(=O)Nc1ccc(C)cc1 [Example 22, N-(2-methylcarbamoyl-5-tert-butyl-3-thienyl)-N′-(4-methylphenyl)urea] | 202 to 204 °C |
| CCc1ccc(NC(=O)Nc2cc(C(C)(C)C)sc2C(=O)NC)cc1 [Example 23, N-(2-Methylcarbamoyl-5-tert-butyl-3-thienyl)-N′-(4ethylphenyl)urea] | 101 to 104 °C |
| CNC(=O)c1sc(C(C)(C)C)cc1NC(=O)Nc1ccc(C)c(Cl)c1 [Example 28, N-(2-Methylcarbamoyl-5-tert-butyl-3-thienyl)-N′-(3-chloro-4-methylphenyl)urea] | 178 to 179 °C |
| CNC(=O)c1sc(C(C)(C)C)cc1NC(=O)Nc1ccc(C(C)C)cc1 [Example 24, N-(2-Methylcarbamoyl-5-tert-butyl-3-thienyl)-N′-(4-isopropylphenyl)urea] | 113 to 120 °C |
| CNC(=O)c1sc(C(C)(C)C)cc1NC(=O)Nc1ccc(C)cc1C [Example 27, N-(2-Methylcarbamoyl-5-tert-butyl-3-thienyl)-N′-(2,4-dimethylphenyl)urea] | 195 to 196 °C |
| COC(=O)c1sc(C(C)C)cc1NC(=O)Nc1ccccc1 [Example 1, N-(2-carbomethoxy-5-isopropyl-3-thienyl)-N′-(phenyl)urea] | 108 to 110 °C |
| CNC(=O)c1sc(C(C)(C)C)cc1NC(=O)Nc1ccc(C)c(F)c1 [Example 29, N-(2-Methylcarbamoyl-5-tert-butyl-3-thienyl)-N′-(3-fluoro4-methylphenyl)urea] | 182 to 183 °C |
| COC(=O)c1sc(C(C)(C)C)cc1NC(=O)Nc1cccc(C)c1 [Example 9, N-(2-Carbomethoxy-5-tert-butyl-3-thienyl)-N′-(3-methylphenyl)urea] | 70 to 72 °C |
| CNC(=O)c1sc(C(C)(C)C)cc1NC(=O)Nc1ccc(F)c(Cl)c1 [Example 30, N-(2-Methylcarbamoyl-5-tert-butyl-3-thienyl)-N′-(3chloro-4-fluorophenyl)urea] | 203 to 204 °C |
| Cc1ccc(NC(=O)Nc2cc(C(C)(C)C)sc2CNC(=O)CNC(=O)OC(C)(C)C)cc1 [Example 52, N-(2-(N-(N-carbo-tert-butoxyglycyl)aminomethyl)-5-tert-butyl-3-thienyl)-N′-(4-methylphenyl)urea] | 174 to 176 °C |
| COC(=O)c1sc(C(C)(C)C)cc1NC(=O)Nc1ccc(C)s1 [Example 14, N-(2-Carbomethoxy-5-tert-butyl-3-thienyl)-N′-(5-methyl-2-thienyl)urea] | 118 to 120 °C |
| CNC(=O)c1sc(C(C)(C)C)cc1NC(=O)Nc1ccc(F)cc1 [Example 25, N-(2-methylcarbamoyl-5-tert-butyl-3-thienyl)-N′-(4-fluorophenyl)urea] | 203 to 204 °C |

Continued, values first:

| melting point | Structure (SMILES) |
| --- | --- |
| 49 to 51 °C | COC(=O)c1cc(C(C)C)sc1NC(=O)Nc1ccc(C)cc1 [Example 42, N-(3-carbomethoxy-5-isopropyl-2-thienyl)-N′-(4-methylphenyl)urea] |
| 78 to 79 °C | COC(=O)c1oc(C(C)(C)C)cc1NC(=O)Nc1ccc(C)cc1 [Example 32, N-(2-carbomethoxy-5-tert-butyl-3-furyl)-N′-(4-methylphenyl)urea] |
| 171 to 172 °C | COC(=O)c1c(NC(=O)Nc2ccc(C)cc2)cc(C(C)(C)C)n1C [Example 40, N-(N-methyl-2-carbomethoxy-5-tert-butyl-3-pyrrolyl)-N′-(4-methylphenyl)urea] |
| 164 to 166 °C | CNC(=O)c1[nH]c(C(C)(C)C)cc1NC(=O)Nc1ccc(C)cc1 [Example 113, N-(2-methylcarbamoyl-5-tert-butyl-3-pyrrolyl)-N′-(4-methylphenyl)urea] |
| 80 to 82 °C | COC(=O)c1cc(C(C)(C)C)sc1NC(=O)Nc1ccccc1 [Example 43, N-(3-Carbomethoxy-5-tert-butyl-2-thienyl)-N′-(phenyl)urea] |
| 64 to 65 °C | COC(=O)c1cc(C(C)C)sc1NC(=O)Nc1ccccc1 [Example 41, N-(3-Carbomethoxy-5-isopropyl-2-thienyl)-N′-(phenyl)urea] |
| 93 to 96 °C | Cc1ccc(NC(=O)Nc2cc(C(C)(C)C)sc2CNC(=O)CN)cc1 [Example 51, N-(2-(N-glycylaminomethyl)-5-tert-butyl-3-thienyl)-N′-(4-methylphenyl)urea] |
| 109 to 111 °C | CNC(=O)c1oc(C(C)(C)C)cc1NC(=O)Nc1ccc(F)cc1 [Example 36, N-(2-methylcarbamoyl-5-tert-butyl-3-furyl)-N′-(4-fluorophenyl)urea] |
| 262 to 263 °C (dec.) | COC(=O)c1[nH]c(C(C)(C)C)cc1NC(=O)Nc1ccccc1 [Example 37, N-(2-Carbomethoxy-5-tert-butyl-3-pyrrolyl)-N′-(phenyl)urea] |
| 203 to 205 °C | CC(=O)NCc1sc(C(C)(C)C)cc1NC(=O)Nc1ccc(C)cc1 [Example 50, N-(2-(N-Acetylaminomethyl)-5-tert-butyl-3-thienyl)-N′-(4-methylphenyl)urea] |
| 195 to 197 °C | COC(=O)c1oc(C(C)(C)C)cc1NC(=O)Nc1cccc(Cl)c1Cl [Example 34, N-(2-Carbomethoxy-5-tert-butyl-3-furyl)-N′-(2,3-dichlorophenyl)urea] |
| 257 to 258 °C | COC(=O)c1[nH]c(C(C)(C)C)cc1NC(=O)Nc1ccc(C)cc1 [Example 38, N-(2carbomethoxy-5-tert-butyl-3-pyrrolyl)-N′-(4-methyl-phenyl)urea] |
| 109 to 111 °C | COC(=O)c1cc(C(C)(C)C)sc1NC(=O)Nc1ccc(C)cc1 [Example 44, N-(3-carbomethoxy-5-tert-butyl-2-thienyl)-N′-(4-methylphenyl)urea] |
| 160 to 162 °C | COC(=O)c1sc(C(C)(C)C)cc1NC(=O)Nc1ccc(F)cc1 [Example 54, N-(2-carbomethoxy-5-tert-butyl-3-thienyl)-N′-(4-fluorophenyl)urea] |
